EP4631931A1, “HDAC INHIBITOR AND USE THEREOF” (Wigen Biomedicine Technology (Shanghai) Co., Ltd., priority 2022, dated 2024)

Assays:
[1] = system: OVCAR 3 cells; assay: NK cell-mediated tumor cell killing (NK92 cells, GFP count); type: cell-based; details: Homo sapiens, 72 h compound, 1-4 h co-culture, compared to DMSO group, read-out: EC50 in promoting the NK92 cell-mediated OVCAR 3 cell death
Method: OVCAR 3 cells […] expressing GFP were seeded into a 96-well plate at 4000 cells/well. After overnight adherence culture, the serially diluted compounds were added, and the plate was incubated for another 72 h. After the two types of cells were mixed and cultured for another 1-4 h, NK92 cells were removed by washing with PBS, and adherent GFP-positive tumor cells were counted. The EC50 of the compounds in promoting the NK92 cell-mediated OVCAR 3 cell death was calculated compared to the DMSO group. Table 11. NK cell-mediated tumor cell killing by compounds of the present disclosure

[2] = system: Jurkat cell; assay: Inhibition of Jurkat cell proliferation (CTG, intracellular ATP); type: cell-based; details: Homo sapiens, 72 h, compared to DMSO group, read-out: Inhibitory activity against Jurkat cell proliferation (IC50)
Method: Jurkat or 293T cells were seeded into a 96-well plate at 3000 cells/well. After overnight adherence culture, the serially diluted compound in DMSO was added. After 72 h, the intracellular ATP level was determined by CTG. The IC50 for the inhibition of cell proliferation by the compounds was calculated compared to the DMSO group. Table 8. Inhibitory activity of compounds of the present disclosure against Jurkat/293T cell proliferation (IC50, µM)

[3] = system: Mouse colon cancer MC38 cells; assay: In vivo efficacy in MC-38 model; design: species or system C57BL6N mice; details: small molecules 15mg/kg PO QD, PD-1 1mg/kg IV QW, BDO 2mg/kg IP QW, 21 days; for TGI(%): 6 mice per group
Method: (§1) Female C57BL6N mice (aged 6 weeks, 18-22 g) were provided by Vital River Laboratory Animal Technology Co., Ltd. (China) and used one week after quarantine and acclimation. All animals were kept in a room at 23±2 °C with a relative humidity of 50±5%, artificial lighting was provided from 08:00 to 20:00 every day, and the air was exchanged 13-18 times per hour. Mouse colon cancer MC38 cells were cultured conventionally in 1640 medium containing 10% fetal bovine serum in an incubator at 37 °C with 5% CO2. After being subcultured, the cells were collected when they reached the desired amount. The C57BL6N mice were subcutaneously injected with 2 × 10^6 MC38 cells on the right side to form tumors. After the tumors grew to about 100 mm^3, the animals were randomly grouped for administration. Tumor volumes were measured with a caliper on day 3, day 7, day 10, day 14, day 17, and day 21 after the administration. […] The toxicity of the compounds was evaluated according to the body weight and state of the mice.
Table 15. In vivo efficacy of some of the compounds of the present disclosure in MC-38 model

[4] = system: Mouse colon cancer CT-26 cells; assay: In vivo efficacy in CT-26 model; design: species or system BALB/c mice; details: small molecules 15mg/kg PO QD, PD-1 1mg/kg IV QW, BDO 2mg/kg IP QW, 21 days; for TGI(%): 6 mice per group
Method: as §1, with “BALB/c” for “C57BL6N”, “CT-26” for “MC38”, “10^5 CT-26” for “10^6 MC38”
Table 16. In vivo efficacy of some of the compounds of the present disclosure in CT-26 model

[5] = target: T1, HDAC10 (Homo sapiens, UniProt Q969S8); assay: HDAC enzyme inhibition, fluorometric assay; type: biochemical; details: read-out: Inhibitory activity against HDAC10 (IC50)
T1 sequence (Q969S8 1-669): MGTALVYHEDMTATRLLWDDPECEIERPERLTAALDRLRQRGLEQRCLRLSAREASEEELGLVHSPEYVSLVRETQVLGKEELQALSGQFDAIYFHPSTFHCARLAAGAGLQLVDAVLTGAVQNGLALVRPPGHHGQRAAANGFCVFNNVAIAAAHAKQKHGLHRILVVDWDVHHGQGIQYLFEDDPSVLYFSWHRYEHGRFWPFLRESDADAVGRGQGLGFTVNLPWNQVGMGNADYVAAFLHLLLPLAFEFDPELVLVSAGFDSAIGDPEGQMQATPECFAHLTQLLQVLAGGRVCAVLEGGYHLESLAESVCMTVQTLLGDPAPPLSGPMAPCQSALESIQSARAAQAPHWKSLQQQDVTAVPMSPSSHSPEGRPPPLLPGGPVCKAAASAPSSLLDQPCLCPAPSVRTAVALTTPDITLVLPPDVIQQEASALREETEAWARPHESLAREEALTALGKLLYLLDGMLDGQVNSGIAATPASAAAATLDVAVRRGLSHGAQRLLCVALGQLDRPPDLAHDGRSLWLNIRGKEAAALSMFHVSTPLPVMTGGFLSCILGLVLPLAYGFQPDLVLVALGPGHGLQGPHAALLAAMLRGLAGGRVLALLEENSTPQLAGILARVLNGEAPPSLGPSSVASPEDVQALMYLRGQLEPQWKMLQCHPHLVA
Method: Serially diluted DMSO sample solutions were added to the reaction wells, enzymes were added to a 384-well plate, and a reaction buffer was added to the control wells. The plate was incubated at room temperature for 15 min. After the fluorogenic substrate solution was added, the reaction was started. Fluorescence intensity readings (excitation: 355 nm, emission: 460 nm) were recorded every minute for 60 min using a Paradigm detector, and the slope values were calculated. Inhibition rate (%) = (maximum value - sample value)/(maximum value - minimum value) × 100%. The IC50 values were obtained by fitting a curve using the equation: Y = Bottom + (Top - Bottom)/(1 + (IC50/X)^HillSlope), where Y represents the inhibition rate and X represents the concentration of the compound. Table 10. Inhibitory activity of compound of the present disclosure against HDAC1, HDAC2, HDAC3, and HDAC10 (IC50, nM)

IC50 [2] [µM] | IC50 [5] [µM] | Structure (SMILES) | EC50 [1] [µM] | Change in body weight [3] | TGI(%) [3] [%] | Change in body weight [4] | TGI(%) [4] [%]
1.62 | 0.318 | Nc1cc(F)ccc1NC(=O)c1ccc(CNC(=O)/C=C/c2cccnc2)cc1 [Chidamide, reference compound] | 0.161 | +21.1% | 8.9 | +21.1% | 8.9
0.59 | 0.127 | [2H]c1cc(C(=O)Nc2ccc(F)cc2N)ccc1CNC(=O)/C=C/c1cccnc1 [Compound 5, (E)-N-(2-amino-4-fluorophenyl)-4-((3-(pyridin-3-yl)acrylamido)methyl)-3-d benzamide] | 0.0337 | +24.2% | 12.2 | +24.2% | 12.2
